Tested on: 32D-mpl cells
Test: proliferation of 32D-mpl cells
Type: cell-based
Method: The compound of Example 1, promoted the proliferation of 32D-mpl cells at a concentration of 0.03 to 30 uM.

CC1=NN(c2ccc(C)c(C)c2)C(=O)C1=CNc1cccc(-c2cccc(C(=O)O)c2)c1O [Example 1, 3′-{[1-(3.4-Dimethylphenyl)-3-methyl-5-oxo-1,5-dihydropyrazol-4-ylidenemethyl]amino}-2′-hydroxybiphenyl-3-carboxylic Acid]
EC50: 0.67 µM
% TPOmax (relative to TPO maximum): 85%
